Activity calls are given as the source filed them.
Tests used:
[1] = biological target: T1, G-protein coupled receptor 55 (Homo sapiens, UniProt Q9Y2T6); experiment: selective activators of receptor GPR55 – imaging, U2OS cells, beta-arrestin-GFP redistribution, primary screen (AID 1961); assay type: functional
[2] = inhibition of ADAM10 peptide cleavage – biochemical, FRET peptide substrate, recombinant human ADAM10, selectivity assay for ADAM17 exosite inhibitor project, dose response (AID 743259);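 further: ADAM10 enzyme cleaving a FRET peptide substrate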
[3] = biological target: Disintegrin and metalloproteinase domain-containing protein 17 (Homo sapiens, UniProt P78536); experiment: exosite inhibitors of ADAM17, dose response, biochemical (AID 743260)
Chain of Disintegrin and metalloproteinase domain-containing protein 17 (P78536 whole entry, the tested form may be a part): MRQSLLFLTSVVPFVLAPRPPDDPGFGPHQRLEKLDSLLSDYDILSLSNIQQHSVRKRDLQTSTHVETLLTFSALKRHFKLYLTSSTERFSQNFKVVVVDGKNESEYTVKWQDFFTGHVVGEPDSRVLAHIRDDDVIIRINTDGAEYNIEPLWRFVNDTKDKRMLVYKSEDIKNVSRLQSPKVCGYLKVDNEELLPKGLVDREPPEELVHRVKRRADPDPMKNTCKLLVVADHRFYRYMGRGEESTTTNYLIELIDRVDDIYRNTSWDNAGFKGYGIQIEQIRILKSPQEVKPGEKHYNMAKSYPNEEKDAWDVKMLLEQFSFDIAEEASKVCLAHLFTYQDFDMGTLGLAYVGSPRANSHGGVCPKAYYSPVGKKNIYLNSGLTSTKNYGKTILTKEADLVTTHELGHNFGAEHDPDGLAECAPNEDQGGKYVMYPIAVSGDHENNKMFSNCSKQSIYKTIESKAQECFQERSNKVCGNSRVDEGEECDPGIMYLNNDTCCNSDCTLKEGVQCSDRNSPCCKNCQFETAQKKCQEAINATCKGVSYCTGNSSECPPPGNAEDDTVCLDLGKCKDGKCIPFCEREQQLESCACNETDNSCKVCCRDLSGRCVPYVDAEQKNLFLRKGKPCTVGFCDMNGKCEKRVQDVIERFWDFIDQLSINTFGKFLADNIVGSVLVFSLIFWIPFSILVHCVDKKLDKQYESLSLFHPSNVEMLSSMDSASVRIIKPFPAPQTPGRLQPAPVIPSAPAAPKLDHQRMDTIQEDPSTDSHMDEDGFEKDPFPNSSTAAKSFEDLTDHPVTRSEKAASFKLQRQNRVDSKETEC

[4] = Luminescent dose response cell-based high throughput screening assay for inhibitors of the Janus kinase 2 mutant JAK2V617F. [Related pubchem assays: 1446 (Primary screen.), 1521 (Confirmation assay.), 1486 (Counter screen.)]; assay type: functional
[5] = Trypanosoma cruzi growth suppression in host cells – NIH3T3 host cells, beta-gal luminescence, confirmation (AID 2044); assay type: functional, cell-based;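 further: intracellular parasites grown in NIH/3T3 mouse fibroblasts as host cells; luminescent beta-galactosidase reporter signal from transgenic T. cruzi replicating inside host cells; inhibitors lower the luminescence signal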
[6] = THP-1 cell cytotoxicity, dose response, cytotoxicity control for non-replicating M. tuberculosis project (AID 489025); assay type: functional
[7] = NIH3T3 cell viability loss – ATP luminescence, mouse fibroblasts, counter-screen, dose response (AID 2010); assay type: functional, cell-based;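 further: cells exposed to compound for about 90 hours before reading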
[8] = cells; assay type: functional
[9] = biological target: Paired box protein Pax-8 (Homo sapiens, UniProt Q06710); experiment: PAX8 transcriptional activity inhibition in RMG-I – RMG-I cells, luciferase, cherry-pick, dose response (AID 687027); assay type: functional, cell-based;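 further: luciferase reporter driven by Pax8 target thyroperoxidase promoter measured by SteadyGlo luminescence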
Chain of Paired box protein Pax-8 (Q06710 whole entry): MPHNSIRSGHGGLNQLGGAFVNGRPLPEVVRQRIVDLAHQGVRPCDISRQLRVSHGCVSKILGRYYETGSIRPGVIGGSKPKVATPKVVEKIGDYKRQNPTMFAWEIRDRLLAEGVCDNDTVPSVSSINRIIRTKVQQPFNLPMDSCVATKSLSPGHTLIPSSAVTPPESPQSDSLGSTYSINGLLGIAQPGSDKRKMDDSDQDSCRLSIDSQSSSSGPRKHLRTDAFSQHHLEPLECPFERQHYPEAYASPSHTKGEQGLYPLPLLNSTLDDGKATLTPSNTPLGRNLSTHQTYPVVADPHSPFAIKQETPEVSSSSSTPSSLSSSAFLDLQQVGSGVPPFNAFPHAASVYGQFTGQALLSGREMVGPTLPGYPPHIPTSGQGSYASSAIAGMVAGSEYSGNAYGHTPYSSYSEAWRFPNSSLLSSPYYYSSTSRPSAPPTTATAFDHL

[10] = Vero E6 cell cytotoxicity, dose response, cytotoxicity control for non-replicating M. tuberculosis project, secondary assay (AID 492998); assay type: functional, VeroE6; settings: Vero C1008
[11] = biological target: T2, Aminopeptidase N (Plasmodium falciparum FcB1/Columbia, UniProt O96935); experiment: malaria alanyl aminopeptidase activity blockers – biochemical, fluorogenic H-Leu-NHMec substrate, 1536-well (AID 1445); set-up: species or system Plasmodium falciparum 3D7, 3D7
T2 sequence (O96935 whole entry): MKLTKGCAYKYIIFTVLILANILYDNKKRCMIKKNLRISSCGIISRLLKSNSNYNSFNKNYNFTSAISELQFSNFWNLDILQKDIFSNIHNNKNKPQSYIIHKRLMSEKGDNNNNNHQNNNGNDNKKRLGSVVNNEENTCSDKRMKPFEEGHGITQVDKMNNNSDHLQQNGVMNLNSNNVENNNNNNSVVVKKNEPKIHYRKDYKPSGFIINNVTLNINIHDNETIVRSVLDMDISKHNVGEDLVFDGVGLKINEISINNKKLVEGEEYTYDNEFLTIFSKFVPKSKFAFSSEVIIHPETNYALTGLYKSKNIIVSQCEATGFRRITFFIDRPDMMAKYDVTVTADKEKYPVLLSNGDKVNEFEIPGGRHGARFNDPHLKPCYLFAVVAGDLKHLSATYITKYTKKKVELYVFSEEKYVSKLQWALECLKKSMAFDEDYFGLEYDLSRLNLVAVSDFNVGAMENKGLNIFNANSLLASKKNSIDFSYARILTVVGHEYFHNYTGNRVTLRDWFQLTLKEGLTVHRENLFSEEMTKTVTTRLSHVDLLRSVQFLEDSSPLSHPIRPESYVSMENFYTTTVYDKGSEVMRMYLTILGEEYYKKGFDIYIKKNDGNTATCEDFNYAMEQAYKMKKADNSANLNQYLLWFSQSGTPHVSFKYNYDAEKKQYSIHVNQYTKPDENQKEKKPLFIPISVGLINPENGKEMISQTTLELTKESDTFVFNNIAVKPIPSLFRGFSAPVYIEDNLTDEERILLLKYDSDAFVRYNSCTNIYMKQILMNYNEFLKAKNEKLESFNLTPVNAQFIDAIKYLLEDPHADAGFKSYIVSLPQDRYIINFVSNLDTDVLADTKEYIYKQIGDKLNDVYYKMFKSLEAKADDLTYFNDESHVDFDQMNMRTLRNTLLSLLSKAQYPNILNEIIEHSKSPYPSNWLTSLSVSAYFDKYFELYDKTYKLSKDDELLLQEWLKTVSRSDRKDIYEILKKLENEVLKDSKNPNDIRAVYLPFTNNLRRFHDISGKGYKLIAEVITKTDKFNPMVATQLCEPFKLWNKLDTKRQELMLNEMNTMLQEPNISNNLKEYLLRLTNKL

[12] = HepG2 cell cytotoxicity, dose response, cytotoxicity control for non-replicating M. tuberculosis project (AID 489018); assay type: functional; settings: Mycobacterium tuberculosis
[13] = biological target: T3, Alkaline phosphatase, tissue-nonspecific isozyme (Homo sapiens, UniProt P05186); experiment: potency against alkaline phosphatase TNAP – biochemical, luminescent, dose response, SAR follow-up (AID 1056)
T3 sequence (P05186 whole entry): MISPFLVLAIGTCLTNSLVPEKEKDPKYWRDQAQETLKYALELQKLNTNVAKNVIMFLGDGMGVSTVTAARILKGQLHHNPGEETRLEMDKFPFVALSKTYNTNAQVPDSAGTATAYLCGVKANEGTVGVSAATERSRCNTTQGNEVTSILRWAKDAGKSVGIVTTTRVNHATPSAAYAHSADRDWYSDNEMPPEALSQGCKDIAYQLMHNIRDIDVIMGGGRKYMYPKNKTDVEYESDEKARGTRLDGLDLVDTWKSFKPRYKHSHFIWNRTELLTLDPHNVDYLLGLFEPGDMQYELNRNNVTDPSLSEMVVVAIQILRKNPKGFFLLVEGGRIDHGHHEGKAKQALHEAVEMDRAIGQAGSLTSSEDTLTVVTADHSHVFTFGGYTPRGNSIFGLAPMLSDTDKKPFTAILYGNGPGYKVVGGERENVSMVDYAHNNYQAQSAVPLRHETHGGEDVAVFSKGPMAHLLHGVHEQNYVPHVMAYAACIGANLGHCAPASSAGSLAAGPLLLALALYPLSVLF

[14] = biological target: T4, Mannose-6-phosphate isomerase (Homo sapiens, UniProt P34949); experiment: phosphomannose isomerase inhibition – biochemical, fluorescence intensity, confirmation (AID 1535)
T4 sequence (P34949 whole entry): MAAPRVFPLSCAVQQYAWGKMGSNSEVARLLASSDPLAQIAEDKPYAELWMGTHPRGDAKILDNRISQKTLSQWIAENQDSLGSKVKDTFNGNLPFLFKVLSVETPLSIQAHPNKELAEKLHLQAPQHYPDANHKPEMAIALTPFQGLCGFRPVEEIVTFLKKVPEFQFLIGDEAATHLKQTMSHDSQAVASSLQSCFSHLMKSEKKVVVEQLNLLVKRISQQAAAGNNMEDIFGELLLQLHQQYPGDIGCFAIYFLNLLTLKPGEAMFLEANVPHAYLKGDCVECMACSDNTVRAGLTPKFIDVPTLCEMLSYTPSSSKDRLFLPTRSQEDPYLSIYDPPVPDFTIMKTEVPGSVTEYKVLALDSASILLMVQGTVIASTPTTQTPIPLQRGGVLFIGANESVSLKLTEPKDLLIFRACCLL

[15] = biological target: T5, Phosphomannomutase 2 (Homo sapiens, UniProt O15305); experiment: Counter screen SAR assay for PMM2 inhibitors via a fluorescence intensity assay. [Related pubchem assays (depositor defined):AID1545, AID1574]
T5 sequence (O15305 whole entry): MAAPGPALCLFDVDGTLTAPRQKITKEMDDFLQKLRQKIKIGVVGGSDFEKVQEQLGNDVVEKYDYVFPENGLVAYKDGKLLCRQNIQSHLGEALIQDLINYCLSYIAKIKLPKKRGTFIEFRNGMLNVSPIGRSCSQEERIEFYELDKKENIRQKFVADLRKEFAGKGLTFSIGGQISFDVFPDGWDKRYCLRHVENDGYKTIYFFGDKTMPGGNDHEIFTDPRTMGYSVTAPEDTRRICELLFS

[16] = biological target: Phosphoethanolamine/phosphocholine phosphatase (Homo sapiens, UniProt Q8TCT1); experiment: SAR assay for compounds that inhibit PHOSPHO1. [Related pubchem assays (depositor defined):AID1545, AID1565, AID1574]
Chain of Phosphoethanolamine/phosphocholine phosphatase (Q8TCT1 whole entry): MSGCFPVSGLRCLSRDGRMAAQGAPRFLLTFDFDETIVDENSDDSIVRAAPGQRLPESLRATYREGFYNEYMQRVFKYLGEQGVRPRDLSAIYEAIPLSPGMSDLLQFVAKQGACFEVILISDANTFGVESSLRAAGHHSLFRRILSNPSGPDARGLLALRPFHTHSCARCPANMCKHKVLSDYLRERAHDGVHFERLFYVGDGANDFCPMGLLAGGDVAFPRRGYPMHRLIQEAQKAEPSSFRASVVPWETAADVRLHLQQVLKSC

[17] = viability loss in HepG2 hepatoma cells – cell-based, ATP luminescence, cherry-pick, activator set 2, cytotoxicity control, dose response (AID 1053143); assay type: functional
[18] = biological target: FAD-linked sulfhydryl oxidase ALR (Homo sapiens, UniProt P55789); experiment: ALR-catalysed DTT oxidation blockers – biochemical, H2O2 detection, luminescence, cherry-pick, dose response (AID 493248)
Chain of FAD-linked sulfhydryl oxidase ALR (P55789 whole entry): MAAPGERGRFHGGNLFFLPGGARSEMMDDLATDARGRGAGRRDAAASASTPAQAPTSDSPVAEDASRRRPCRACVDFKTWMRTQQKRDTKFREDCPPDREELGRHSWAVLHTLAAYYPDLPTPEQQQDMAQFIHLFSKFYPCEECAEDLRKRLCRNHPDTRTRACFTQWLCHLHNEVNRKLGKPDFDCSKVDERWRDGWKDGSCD

[19] = system: INS1; experiment: INS-1E survival protection against cytokine death – cell-based, luminescence, retest, dose response (AID 449756); assay type: functional; settings: Rattus norvegicus, INS1;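 further: cell death triggered by IL-1 beta plus TNF-alpha plus IFN-gamma mixture; protective hits raise ATP signal compared with cytokine alone wells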
[20] = biological target: T6, Ubiquitin-conjugating enzyme E2 N (Homo sapiens, UniProt P61088); assay type: functional;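 further: Dose-response confirmation in a TR-FRET assay detecting UBC13-driven polyubiquitin chain formation, inhibition measured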
T6 sequence (P61088 whole entry): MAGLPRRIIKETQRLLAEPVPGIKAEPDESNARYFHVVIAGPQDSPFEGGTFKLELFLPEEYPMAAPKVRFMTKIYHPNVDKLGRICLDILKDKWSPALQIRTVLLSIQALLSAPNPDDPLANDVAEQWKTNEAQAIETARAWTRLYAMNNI

[21] = biological target: T1, G-protein coupled receptor 55; experiment: inhibition of LPI-stimulated GPR55 beta-arrestin translocation – imaging, U2OS, beta-arrestin-GFP, LPI agonist, primary screen (AID 2013); assay type: functional;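 further: antagonist potency measured as reduced agonist-driven arrestin aggregation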
[22] = biological target: T7, Sentrin-specific protease 1 (Homo sapiens, UniProt Q9P0U3); experiment: SENP1 catalytic domain blockers, concentration series – biochemical, kinetic FRET, dose response (AID 651697); assay type: functional; settings: read-out: IC50_Mean
T7 sequence (Q9P0U3 whole entry): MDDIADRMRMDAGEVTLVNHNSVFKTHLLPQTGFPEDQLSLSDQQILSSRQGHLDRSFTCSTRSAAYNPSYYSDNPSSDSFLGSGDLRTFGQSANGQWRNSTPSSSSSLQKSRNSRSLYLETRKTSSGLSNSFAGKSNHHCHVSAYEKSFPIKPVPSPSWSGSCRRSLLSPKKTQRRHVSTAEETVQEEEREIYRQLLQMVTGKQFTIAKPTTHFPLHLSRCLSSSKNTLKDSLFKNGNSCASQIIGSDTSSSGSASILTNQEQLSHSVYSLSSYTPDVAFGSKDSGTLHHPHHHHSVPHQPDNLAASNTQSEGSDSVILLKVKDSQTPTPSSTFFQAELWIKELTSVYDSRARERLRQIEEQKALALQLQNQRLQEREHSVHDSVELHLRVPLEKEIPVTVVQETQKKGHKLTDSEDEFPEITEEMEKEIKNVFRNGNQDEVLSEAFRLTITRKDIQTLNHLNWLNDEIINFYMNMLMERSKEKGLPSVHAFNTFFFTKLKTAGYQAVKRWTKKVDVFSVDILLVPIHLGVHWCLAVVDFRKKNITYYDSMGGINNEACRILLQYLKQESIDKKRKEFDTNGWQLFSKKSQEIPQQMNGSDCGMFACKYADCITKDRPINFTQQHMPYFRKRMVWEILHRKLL

[23] = biological target: 72 kDa type IV collagenase (Homo sapiens, UniProt P08253); experiment: Dose Response validation of uHTS RPN11 inhibitor hits using a MMP-2 Fluorescence assay.; assay type: functional
Chain of 72 kDa type IV collagenase (P08253 whole entry): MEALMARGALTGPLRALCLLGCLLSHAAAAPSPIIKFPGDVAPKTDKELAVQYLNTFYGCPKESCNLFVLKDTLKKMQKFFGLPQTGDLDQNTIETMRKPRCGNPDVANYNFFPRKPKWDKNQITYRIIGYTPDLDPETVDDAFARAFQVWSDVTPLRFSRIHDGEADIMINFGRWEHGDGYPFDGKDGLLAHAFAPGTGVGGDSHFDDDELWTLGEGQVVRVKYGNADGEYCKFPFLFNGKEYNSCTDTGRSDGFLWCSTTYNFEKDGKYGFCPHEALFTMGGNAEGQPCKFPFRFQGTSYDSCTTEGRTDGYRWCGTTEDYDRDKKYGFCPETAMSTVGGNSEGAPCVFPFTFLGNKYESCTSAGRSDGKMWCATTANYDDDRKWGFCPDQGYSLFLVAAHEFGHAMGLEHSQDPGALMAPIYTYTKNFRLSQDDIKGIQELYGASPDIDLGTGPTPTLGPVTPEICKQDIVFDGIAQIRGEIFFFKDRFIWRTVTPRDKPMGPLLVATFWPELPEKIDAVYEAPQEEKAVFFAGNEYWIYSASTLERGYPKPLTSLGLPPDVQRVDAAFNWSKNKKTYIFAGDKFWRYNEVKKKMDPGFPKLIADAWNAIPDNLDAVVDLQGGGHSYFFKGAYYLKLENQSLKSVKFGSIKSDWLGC

[24] = biological target: T8, Calpain-2 catalytic subunit (Sus scrofa, UniProt P43367); experiment: m-calpain protease blockers, concentration series – biochemical, fluorogenic peptide substrate, dose response (AID 1420); assay type: functional
T8 sequence (P43367 whole entry): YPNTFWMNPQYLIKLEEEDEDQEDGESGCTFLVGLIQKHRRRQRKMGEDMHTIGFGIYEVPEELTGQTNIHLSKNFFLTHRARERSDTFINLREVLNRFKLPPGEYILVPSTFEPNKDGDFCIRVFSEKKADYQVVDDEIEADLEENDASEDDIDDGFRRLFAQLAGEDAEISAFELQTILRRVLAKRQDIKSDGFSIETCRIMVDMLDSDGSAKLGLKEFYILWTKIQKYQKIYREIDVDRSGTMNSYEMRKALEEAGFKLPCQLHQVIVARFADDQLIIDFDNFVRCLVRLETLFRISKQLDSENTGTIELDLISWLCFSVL

[25] = biological target: 26S proteasome non-ATPase regulatory subunit 14 (Homo sapiens, UniProt O00487); experiment: inhibition of proteasome subunit RPN11 – biochemical, fluorescence polarization, uHTS hits, confirmation (AID 602368); assay type: functional
Chain of 26S proteasome non-ATPase regulatory subunit 14 (O00487 whole entry): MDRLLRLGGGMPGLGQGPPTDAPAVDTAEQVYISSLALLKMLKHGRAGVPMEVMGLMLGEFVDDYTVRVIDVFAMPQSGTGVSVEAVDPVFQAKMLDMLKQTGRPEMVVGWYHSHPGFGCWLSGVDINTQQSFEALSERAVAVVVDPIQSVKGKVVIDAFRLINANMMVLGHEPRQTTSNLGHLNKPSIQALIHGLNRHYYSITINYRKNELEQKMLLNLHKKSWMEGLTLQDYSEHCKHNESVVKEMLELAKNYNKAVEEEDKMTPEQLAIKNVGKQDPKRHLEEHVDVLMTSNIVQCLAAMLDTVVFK

[26] = biological target: Prothrombin (Bos taurus, UniProt P00735); experiment: thrombin protease inhibitors – biochemical, fluorescence polarization, uHTS hits, dose response (AID 602369); assay type: functional
[27] = biological target: T7, Sentrin-specific protease 1; experiment: Dose response confirmation of small molecule inhibitors of the catalytic domain of the SUMO protease, SENP1 in a FRET assay.; assay type: functional; settings: read-out: IC50_Mean

T1 sequence (Q9Y2T6 whole entry): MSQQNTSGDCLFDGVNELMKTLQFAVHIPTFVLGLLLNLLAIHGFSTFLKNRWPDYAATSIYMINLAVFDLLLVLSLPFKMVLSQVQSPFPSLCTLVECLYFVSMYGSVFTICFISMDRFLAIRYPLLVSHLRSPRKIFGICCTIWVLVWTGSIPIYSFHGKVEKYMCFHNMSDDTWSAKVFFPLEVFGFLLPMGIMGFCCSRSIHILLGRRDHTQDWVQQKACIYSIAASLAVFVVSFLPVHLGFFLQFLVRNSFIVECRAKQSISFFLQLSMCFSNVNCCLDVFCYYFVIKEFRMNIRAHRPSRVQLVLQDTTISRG

Cc1ccc(C(=O)N2CCN(C3c4cccc5cccc(c45)C3NS(=O)(=O)c3ccccc3)CC2)cc1 (stereo not given)
EC50 [1]: 3.68 µM (active) | IC50 [2]: > 69.5 µM (inactive) | IC50 [3]: > 69.5 µM (inactive)

O=C(Nc1cccc(NC(=O)c2cccs2)c1)c1ccc([N+](=O)[O-])o1
IC50 [4]: 1.57 µM (active) | EC50 [5]: 0.104 µM (active) | CC50 [6]: 7.45 µM (active) | EC50 [7]: > 60 µM (not active) | IC50 [8]: 4.05 µM (active) | AC50 [9]: 4.04 µM (active) | CC50 [10]: 11.9 µM (active) | IC50 [11]: 49.8 µM (active) | CC50 [12]: 11 µM (active)

O=c1c2ccccc2sn1-c1ccc(Cl)c(S(=O)(=O)N2CCOCC2)c1
IC50 [13]: > 100 µM (inactive) | IC50 [14]: 8.58 µM (active) | IC50 [15]: 55.3 µM (active) | IC50 [16]: 1.07 µM (inactive)

CN(C)CCCNc1cc(C(C)(C)C)nc2c(-c3ccccc3)cnn12
AC50 [17]: 15.5 µM (active) | AC50 [18]: 2.53 µM (active) | EC50 [5]: 0.574 µM (active) | CC50 [6]: 24.5 µM (active) | EC50 [7]: 4.96 µM (active) | IC50 [8]: 19.8 µM (active) | AC50 [19]: 13.8 µM (active) | CC50 [10]: > 20 µM (active) | IC50 [20]: > 20 µM (inactive) | CC50 [12]: > 20 µM (active)

CCCOc1ccc(/C=C2/C(=O)ON=C2C)cc1Cl
EC50 [1]: > 32 µM (inactive)

CCOC(=O)c1cc(C#N)c(Oc2ccccc2)nc1-c1ccccc1
IC50 [21]: 1.69 µM (active)

O=C(NCCSCc1ccccc1)c1ccc(C2SCC(=O)N2Cc2ccccc2)cc1 (stereo not given)
IC50 [21]: 1.49 µM (active) | IC50 [22]: 11 µM (active) | IC50 [23]: > 100 µM (inactive) | IC50 [24]: 4.77 µM (not active) | IC50 [25]: 37.5 µM (active) | IC50 [26]: 50.5 µM (active) | IC50 [27]: 19.1 µM (active)

— ChEMBL document CHEMBL1201862, “PubChem BioAssay data set” (2004)
